Data: the NIST ThermoML archive (doi:10.1016/j.jct.2015.06.021)
Where “and” joins values, the source holds several entries; their conditions need not be identical. Equal entries are not always repeated. Numbers after ± are expanded uncertainties.

Columns and labels:
[1] = Molar enthalpy of transition or fusion; details: Crystal; DSC
[2] = Crystal; for vapor or sublimation pressure: Calculated from knudsen effusion weight loss; for Normal melting temperature: DTA

c1ccc2c(c1)ccc1ccccc12 [phenanthrene]
Details	Molar enthalpy of transition or fusion [kcal/mol]	Normal melting temperature [°C]
[1]	3.62 ± 0.526	–
[2]	–	99 ± 2

[2]
Details	vapor or sublimation pressure [kPa]
296.2 K	1.61e-05 ± 1.6e-06
297.2 K	1.86e-05 ± 1.9e-06
298.2 K	2.1e-05 ± 2.1e-06
299.2 K	2.43e-05 ± 2.4e-06
300.2 K	2.7e-05 ± 2.7e-06
301.2 K	3e-05 ± 3e-06
302.2 K	3.43e-05 ± 3.4e-06
303.2 K	3.83e-05 ± 3.8e-06
304.2 K	4.3e-05 ± 4.3e-06
305.2 K	4.88e-05 ± 4.9e-06
306.2 K	5.4e-05 ± 5.4e-06
307.2 K	6.08e-05 ± 6e-06
308.2 K	6.73e-05 ± 6.7e-06
309.2 K	7.49e-05 ± 7.4e-06
310.2 K	8.41e-05 ± 8.3e-06
311.2 K	9.35e-05 ± 9.3e-06
312.2 K	0.0001041 ± 1e-05
313.2 K	0.0001151 ± 1.1e-05

c1ccc2cc3ccccc3cc2c1 [anthracene]
Details	Molar enthalpy of transition or fusion [kcal/mol]	Normal melting temperature [°C]
[1]	6.55 ± 0.932	–
[2]	–	217 ± 2

[2]
Details	vapor or sublimation pressure
301.3 K	1.3e-06 ± 1e-07 kPa
303.3 K	1.8e-06 ± 2e-07 kPa
303.6 K	1.7e-06 ± 2e-07 kPa
305.7 K	2.5e-06 ± 3e-07 kPa
305.9 K	2.2e-06 ± 2e-07 kPa
307.8 K	3.2e-06 ± 6e-07 kPa
308.1 K	3.9e-06 ± 6e-07 kPa
308.2 K	3.3e-06 ± 3e-07 kPa
310 K	4.3e-06 ± 4e-07 kPa
310.2 K	4.2e-06 ± 5e-07 kPa
310.5 K	4.5e-06 ± 5e-07 kPa
313.3 K	6.5e-06 ± 6e-07 kPa
314.5 K	7.3e-06 ± 7e-07 kPa
314.7 K	7.4e-06 ± 7e-07 kPa
314.9 K	7.6e-06 ± 8e-07 kPa
317.6 K	1.05e-05 ± 1e-06 kPa
318.8 K	1.1e-05 ± 1.1e-06 kPa
319.2 K	1.28e-05 ± 1.5e-06 kPa
322.3 K	1.81e-05 ± 1.8e-06 kPa
323.1 K	2.05e-05 ± 2e-06 kPa and 1.74e-05 ± 1.7e-06 kPa
323.2 K	2.12e-05 ± 2.1e-06 kPa
323.8 K	2.09e-05 ± 2e-06 kPa
326.6 K	2.96e-05 ± 2.9e-06 kPa
328 K	3.16e-05 ± 3.1e-06 kPa
328.6 K	3.48e-05 ± 3.5e-06 kPa
331.5 K	4.92e-05 ± 4.9e-06 kPa
333.1 K	6.27e-05 ± 6.2e-06 kPa
333.3 K	6.36e-05 ± 6.2e-06 kPa
333.7 K	6.31e-05 ± 6.1e-06 kPa
336.3 K	8.09e-05 ± 7.9e-06 kPa
338.2 K	8.49e-05 ± 8.3e-06 kPa
338.8 K	0.0001028 ± 1.2e-05 kPa and 9.99e-05 ± 1.1e-05 kPa
343.1 K	0.000173 ± 1.8e-05 kPa and 0.0001738 ± 1.8e-05 kPa
343.4 K	0.0001646 ± 1.7e-05 kPa and 0.0001599 ± 1.8e-05 kPa
348.1 K	0.0002492 ± 2.5e-05 kPa
348.2 K	0.0002587 ± 2.6e-05 kPa
353.2 K	0.0004347 ± 4.3e-05 kPa
363.2 K	0.001018 ± 0.00012 kPa
373.2 K	0.002158 ± 0.00026 kPa
